In PubChem BioAssay (NCI):
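Five compound concentrations were applied to cells in 96-well plates for 48 hours; endpoints were derived by simple linear interpolation of the resulting dose-response curve. GI50 marks 50% less growth. At the TGI there is no net growth.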

What was measured:
Experiment in all cases: NCI tumour cell line growth inhibition, 48 h
OVCAR-8 ovarian = tested on: OVCAR-8 ovarian
RPMI-8226 leukemia = tested on: RPMI-8226 leukemia
T-47D breast = tested on: T-47D breast
SK-OV-3 ovarian = tested on: SK-OV-3 ovarian
M14 melanoma = tested on: M14 melanoma
SF-539 CNS = tested on: SF-539 CNS
UACC-62 melanoma = tested on: UACC-62 melanoma
HCT-15 colon = tested on: HCT-15 colon
A498 renal = tested on: A498 renal

Row | Structure (SMILES) | GI50 (OVCAR-8 ovarian) | TGI (OVCAR-8 ovarian) | TGI (RPMI-8226 leukemia) | GI50 (T-47D breast) | TGI (T-47D breast) | TGI (SK-OV-3 ovarian) | GI50 (M14 melanoma) | TGI (M14 melanoma) | TGI (SF-539 CNS) | GI50 (UACC-62 melanoma) | TGI (UACC-62 melanoma) | TGI (HCT-15 colon) | TGI (A498 renal)
1 | COc1cc(O)c2c(=O)c(OC)c(-c3ccc(OC)c(OC)c3)oc2c1.[Sn] | > 100 µM | > 100 µM | > 100 µM | 7.91 µM | > 100 µM | > 100 µM | > 100 µM | > 100 µM | > 100 µM | > 100 µM | > 100 µM | – | –
2 | COc1ccc2nc3c([N+](=O)[O-])ccc(NCCCN(C)C)c3c(N)c2c1 | – | 4.69 µM | 1.84 µM | – | 3.98 µM | 3.01 µM | – | 3.61 µM | 3.36 µM | – | 3.79 µM | 2.62 µM | –
3 | O=C1CCc2ccccc2O1 | – | > 100 µM | > 100 µM | – | > 100 µM | > 100 µM | – | – | – | – | > 100 µM | > 100 µM | > 100 µM
4 | Clc1ccc(Nc2nnc(CNc3ccc(-c4nnc(Nc5ccc(Cl)cc5)o4)cc3)o2)cc1 | – | 25.7 µM | > 100 µM | – | 56.6 µM | 49.7 µM | – | 43.2 µM | 36.3 µM | – | 27.8 µM | 35.4 µM | 28.9 µM
5 | CC1(C)OC2OC(C(=O)c3ccccc3)C3OC(C)(C)OC3C2O1 (stereo not given) | – | > 100 µM | > 100 µM | – | > 100 µM | > 100 µM | – | > 100 µM | > 100 µM | – | > 100 µM | > 100 µM | > 100 µM
6 | CON(C(=O)OC(C)(C)C)c1ccccc1 | – | > 100 µM | > 100 µM | – | > 100 µM | > 100 µM | – | > 100 µM | – | – | > 100 µM | > 100 µM | > 100 µM
7 | COc1cc(/C=C/C2=NN(c3cccc(S(=O)(=O)O)c3)C3(C2)SCC(=O)N3c2nc3ccccc3s2)cc(OC)c1OC (stereo not given) | – | > 100 µM | 48.9 µM | – | 47.8 µM | – | – | > 100 µM | > 100 µM | – | > 100 µM | > 100 µM | > 100 µM
8 | O=C(c1cccnc1)N1N=C(c2ccc3c(c2)OCO3)CC1(O)c1cc(F)c(Cl)cc1Cl (stereo not given) | – | 38.4 µM | > 100 µM | – | 43.2 µM | > 100 µM | – | > 100 µM | 33.6 µM | – | – | 42.5 µM | –
9 | CC(C)(/C=N/O)/[N+]([O-])=C/c1ccccc1 | – | > 100 µM | > 100 µM | – | > 100 µM | > 100 µM | – | > 100 µM | > 100 µM | – | > 100 µM | > 100 µM | –
10 | CC(C)(CO)NC(=O)c1cccs1 | – | > 100 µM | > 100 µM | – | > 100 µM | > 100 µM | – | > 100 µM | – | – | > 100 µM | > 100 µM | –
11 | O=C(NCCC1CN(S(=O)(=O)C(F)(F)F)c2ccccc21)OCc1ccccc1 (stereo not given) | – | > 100 µM | > 100 µM | – | – | > 100 µM | – | > 100 µM | – | – | > 100 µM | > 100 µM | > 100 µM
12 | CC(=O)OC12OC(C)(C3C(=O)N(c4ccccc4)C(=O)C31)N(c1ccccc1)C2=O (stereo not given) | – | > 100 µM | – | – | > 100 µM | > 100 µM | – | > 100 µM | > 100 µM | – | > 100 µM | > 100 µM | –
13 | O=C1C=CC(=O)[C@H]2C3C=CC(C4C3C3(Cl)C(Cl)=C(Cl)[C@]4(Cl)C3(Cl)Cl)[C@@H]12 (stereo not given in full) | – | 20.7 µM | 23 µM | – | 23.2 µM | 27.3 µM | – | 16 µM | 17.9 µM | – | 21 µM | 16.6 µM | 31.7 µM
